Laboratory results as given in ChEMBL document CHEMBL2057076, “C-6 aryl substituted 4-quinolone-3-carboxylic acids as inhibitors of hepatitis C virus” (Bioorg Med Chem, 2012).
The source made the active and inactive calls. No cut-off for these calls is given here.

Assays:
[1] = Cytotoxicity against human HuH7 cells assessed as cell viability at 10 uM after 3 days by CellTiter Glo assay; format: cell-based, Huh-7; details: read-out: Activity
[2] = tested on: Hepatitis C virus; experiment: Antiviral activity at Hepatitis C virus genotype 1b infected in human HuH7 cells assessed as inhibition of viral replication at 10 uM after 3 days by renilla luciferase reporter gene assay; format: functional, Hepacivirus hominis; details: Huh-7, 72 h
[3] = tested on: Hepacivirus hominis; experiment: Inhibition of Hepatitis C virus NS5B delta 55 assessed as [3H][…] incorporation on a poly(A) template at 50 uM after 3 hrs by scintillation proximity assay
[4] = tested on: Hepacivirus hominis; experiment: Inhibition of Hepatitis C virus NS5B delta 55 assessed as [3H][…] incorporation on a poly(A) template at 10 uM after 3 hrs by scintillation proximity assay
[5] = tested on: Hepatitis C virus; experiment: Antiviral activity at Hepatitis C virus genotype 1b infected in human HuH7 cells assessed as inhibition of viral replication after 3 days by renilla luciferase reporter gene assay; format: functional, organism-based, Hepacivirus hominis; details: Huh-7, 72 h
[6] = Therapeutic index, ratio of CC50 for human HuH7 cells to EC50 for Hepatitis C virus genotype 1b; format: cell-based, Huh-7; details: read-out: Ratio CC50/EC50
[7] = Cytotoxicity against human HuH7 cells assessed as cell viability after 3 days by CellTiter Glo assay; format: cell-based, Huh-7
[8] = Cytotoxicity against human HuH7 cells assessed as cell viability at 0.5 uM after 3 days by CellTiter Glo assay; format: cell-based, Huh-7; details: read-out: Activity
[9] = tested on: Hepatitis C virus; experiment: Antiviral activity at Hepatitis C virus genotype 1b infected in human HuH7 cells assessed as inhibition of viral replication at 0.5 uM after 3 days by renilla luciferase reporter gene assay; format: functional, Hepacivirus hominis; details: Huh-7, 72 h
[10] = tested on: Hepatitis C virus; experiment: Antiviral activity at Hepatitis C virus genotype 1b infected in human HuH7 cells assessed as inhibition of viral replication at 0.5 uM after 3 days by quantitative RT-PCR analysis; format: functional, Hepacivirus hominis; details: Huh-7, 72 h
[11] = tested on: Hepacivirus hominis; experiment: Inhibition of Hepatitis C virus NS5B delta 55 assessed as [3H][…] incorporation on a poly(A) template at 1 uM after 3 hrs by scintillation proximity assay
[12] = tested on: Hepatitis C virus; experiment: Antiviral activity at Hepatitis C virus genotype 1b infected in human HuH7 cells assessed as inhibition of viral replication at 10 uM after 3 days by quantitative RT-PCR analysis; format: functional, Hepacivirus hominis; details: Huh-7, 72 h

With `O=C(O)c1cn(CCO)c2ccc(I)cc2c1=O` the viability at 72 h, 10 µM [1] was 100% and the inhibition at 10 µM [2] was 21%.

In the case of `O=C(O)c1cn(CCO)c2ccc(-c3cccs3)cc2c1=O`, the viability at 72 h, 10 µM [1] is reported as 100%, the inhibition [3] is reported as “Active” and the inhibition at 10 µM [2] is reported as 40%. The inhibition [4] was “Active”, the EC50 [5] was 36 µM and the selectivity ratio [6] was over 1.4. It also gave a CC50 at 72 h [7] of over 50 µM.

For `O=C(O)c1cn(CCO)c2ccc(-c3ccco3)cc2c1=O`, the viability at 72 h, 10 µM [1] was 100% and the inhibition at 10 µM [2] was 20%.

Work on `O=C(O)c1cn(CCCO)c2ccc(-c3cc4ccccc4o3)cc2c1=O` yielded a viability at 72 h, 10 µM [1] of 100%, an inhibition at 10 µM [2] of 44% and an EC50 [5] of 23 µM. It also gave a selectivity ratio [6] of 1.1 and a CC50 at 72 h [7] of 25 µM.

`CCCn1cc(C(=O)O)c(=O)c2cc(-c3cc4ccccc4o3)ccc21` showed a viability at 72 h, 10 µM [1] of 91% and an inhibition at 10 µM [2] of 4%.

Work on `CC(=O)c1ccc(-c2ccc3c(c2)c(=O)c(C(=O)O)cn3CCO)s1` yielded a viability at 72 h, 10 µM [1] of 100% and an inhibition at 10 µM [2] of 0%.

Molecule `C[C@@]1(O)[C@H](O)[C@@H](CO)O[C@H]1n1cnc2c(N)ncnc21` has a viability at 72 h, 0.5 µM [8] of 87%, an inhibition at 0.5 µM [9] of 98% and an inhibition at 0.5 µM [10] of 95%.

`O=C(O)c1cn(CCO)c2cc(-c3cccs3)ccc2c1=O` gave a viability at 72 h, 10 µM [1] of 100% and an inhibition at 10 µM [2] of 14%.

For `N#Cc1cc(COc2cccc(C(=O)/C=C(\O)C(=O)O)c2)c(Cl)cc1Cl`, the inhibition [11] was “Active”.

Molecule `COc1ccc(-c2ccc3c(c2)c(=O)c(C(=O)O)cn3CCO)cc1` has a viability at 72 h, 10 µM [1] of 95% and an inhibition at 10 µM [2] of 0%.

Molecule `O=C(O)c1cn(Cc2ccccc2)c2ccc(I)cc2c1=O` has a viability at 72 h, 10 µM [1] of 99% and an inhibition at 10 µM [2] of 0%.

With `O=C(O)c1cnc2ccc(I)cc2c1O` the viability at 72 h, 10 µM [1] was 100% and the inhibition at 10 µM [2] was 22%.

With `O=C(O)c1cn(CCO)c2ccc(-c3cc4ccccc4o3)cc2c1=O` the inhibition at 10 µM [12] was 70%, the viability at 72 h, 10 µM [1] was 100% and the inhibition [3] was “inactive”. For the same molecule, the inhibition at 10 µM [2] was 63%, the inhibition [4] was “inactive” and the EC50 [5] was 5.8 µM. For the same molecule, the selectivity ratio [6] was 5.9 and the CC50 at 72 h [7] was 34 µM.

`O=C(O)c1c[nH]c2ccc(-c3ccco3)cc2c1=O` gave a viability at 72 h, 10 µM [1] of 100% and an inhibition at 10 µM [2] of 0%.

Work on `O=C(O)c1cn(CCO)c2cc(-c3cc4ccccc4o3)ccc2c1=O` yielded a viability at 72 h, 10 µM [1] of 94% and an inhibition at 10 µM [2] of 14%.

`O=C(O)c1cn(CCO)c2cc(-c3ccco3)ccc2c1=O` showed a viability at 72 h, 10 µM [1] of 100% and an inhibition at 10 µM [2] of 15%.

With `O=C(O)c1cn(CCO)c2ccc(-c3ccoc3)cc2c1=O` the viability at 72 h, 10 µM [1] was 100% and the inhibition at 10 µM [2] was 0%.

For `O=C(O)c1cn(CCO)c2ccc(-c3cc4ccccc4s3)cc2c1=O`, the viability at 72 h, 10 µM [1] was 100%, the inhibition [3] was “Active” and the inhibition at 10 µM [2] was 58%. For the same molecule, the inhibition [4] was “Active”, the EC50 [5] was 5.9 µM and the selectivity ratio [6] was 2.5. It also gave a CC50 at 72 h [7] of 15 µM.

For `O=C(O)c1c[nH]c2ccc(-c3cccs3)cc2c1=O`, the viability at 72 h, 10 µM [1] was 100% and the inhibition at 10 µM [2] was 0%.

With `NC(=O)c1ncn([C@@H]2O[C@H](CO)[C@@H](O)[C@H]2O)n1` [RIBAVIRIN] the viability at 72 h, 10 µM [1] was 92% and the inhibition at 10 µM [2] was 44%.

`O=C(O)c1cn(CCCO)c2cc(-c3cccs3)ccc2c1=O` gave a viability at 72 h, 10 µM [1] of 97% and an inhibition at 10 µM [2] of 12%.
